The structures appear in SMILES notation.

Chain of H1047R PIK3CA enzyme (P42336 whole entry H1047R): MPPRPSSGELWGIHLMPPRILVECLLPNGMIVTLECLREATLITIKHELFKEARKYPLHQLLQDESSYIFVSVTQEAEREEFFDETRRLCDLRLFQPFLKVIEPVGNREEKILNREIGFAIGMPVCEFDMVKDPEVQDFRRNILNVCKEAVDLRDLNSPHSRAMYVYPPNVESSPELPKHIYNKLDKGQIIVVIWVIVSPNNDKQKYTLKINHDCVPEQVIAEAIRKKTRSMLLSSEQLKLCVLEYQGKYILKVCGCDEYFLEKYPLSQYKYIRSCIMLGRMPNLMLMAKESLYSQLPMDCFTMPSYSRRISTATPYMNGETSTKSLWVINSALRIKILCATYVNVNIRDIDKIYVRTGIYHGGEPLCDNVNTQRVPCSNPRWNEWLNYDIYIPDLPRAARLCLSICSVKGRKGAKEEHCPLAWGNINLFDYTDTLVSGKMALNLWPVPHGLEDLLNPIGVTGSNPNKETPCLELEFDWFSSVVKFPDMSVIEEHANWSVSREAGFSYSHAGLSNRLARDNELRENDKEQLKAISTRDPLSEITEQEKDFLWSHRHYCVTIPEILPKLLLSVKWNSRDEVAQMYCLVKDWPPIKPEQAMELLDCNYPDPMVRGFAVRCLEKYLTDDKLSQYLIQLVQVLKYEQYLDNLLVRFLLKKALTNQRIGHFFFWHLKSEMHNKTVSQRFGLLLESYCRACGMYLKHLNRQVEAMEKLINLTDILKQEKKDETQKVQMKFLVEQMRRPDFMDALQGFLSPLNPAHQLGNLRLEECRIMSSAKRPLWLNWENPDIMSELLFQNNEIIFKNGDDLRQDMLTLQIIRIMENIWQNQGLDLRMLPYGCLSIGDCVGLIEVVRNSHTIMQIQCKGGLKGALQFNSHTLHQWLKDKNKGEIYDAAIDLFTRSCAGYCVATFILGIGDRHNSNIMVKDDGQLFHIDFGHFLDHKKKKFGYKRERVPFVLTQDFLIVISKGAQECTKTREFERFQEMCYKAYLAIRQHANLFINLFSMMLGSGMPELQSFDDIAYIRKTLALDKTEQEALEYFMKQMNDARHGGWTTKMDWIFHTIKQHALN
Chain of H1047R PIK3CA enzyme (P27986 whole entry partner): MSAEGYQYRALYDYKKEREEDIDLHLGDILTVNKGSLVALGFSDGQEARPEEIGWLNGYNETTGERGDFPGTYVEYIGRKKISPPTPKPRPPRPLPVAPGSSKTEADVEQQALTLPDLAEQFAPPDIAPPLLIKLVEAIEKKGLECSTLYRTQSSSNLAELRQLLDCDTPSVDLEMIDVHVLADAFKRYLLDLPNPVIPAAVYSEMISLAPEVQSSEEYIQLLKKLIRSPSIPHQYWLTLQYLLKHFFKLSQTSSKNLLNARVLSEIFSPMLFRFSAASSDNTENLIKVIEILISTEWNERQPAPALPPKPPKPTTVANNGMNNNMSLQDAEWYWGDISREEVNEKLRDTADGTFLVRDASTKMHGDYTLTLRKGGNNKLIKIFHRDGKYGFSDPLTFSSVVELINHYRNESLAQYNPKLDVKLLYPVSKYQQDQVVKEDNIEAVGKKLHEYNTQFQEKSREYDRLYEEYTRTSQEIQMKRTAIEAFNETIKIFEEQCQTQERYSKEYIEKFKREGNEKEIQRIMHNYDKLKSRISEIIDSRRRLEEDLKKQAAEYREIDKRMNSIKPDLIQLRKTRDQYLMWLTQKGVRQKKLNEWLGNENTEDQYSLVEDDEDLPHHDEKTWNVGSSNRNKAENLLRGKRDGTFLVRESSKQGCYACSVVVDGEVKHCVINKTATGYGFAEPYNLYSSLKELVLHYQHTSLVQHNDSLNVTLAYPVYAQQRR

The assay addresses H1047R PIK3CA enzyme (Homo sapiens, UniProt P42336, H1047R). Put plainly: ADP-Glo Biochemical PIK3CA Kinase Assay. (In general: In ADP-Glo the light output rises with the ADP produced.)
Usually IC50 stands for the concentration at which inhibition is half-maximal. A lower IC50 goes with inhibition by little substance. For the compound `CS(=O)(Cc1cc(NC(=O)c2cc(F)cc(C(F)(F)F)c2)c2c(c1)C(=O)NC2c1cc(F)ccc1Cl)=Nc1cccnc1` (centres unmarked) [Compound I-1486], the IC50 is ≤ 100 nM.
Under `N#Cc1cccc([S+]([O-])Cc2cc(NC(=O)c3cc(F)cc(C(F)(F)F)c3)c3c(c2)C(=O)NC3c2cc(F)ccc2Cl)c1` (centres unmarked) [Compound I-1487] stands ≤ 100 nM; under `CN(C)S(=O)(=O)Cc1cc(NC(=O)c2cc(F)cc(C(F)(F)F)c2)c2c(c1)C(=O)N[C@@H]2c1cc(F)ccc1Cl` [Compound I-1488], 1000 to 10000 nM.
The result for `CN(C)S(=O)(=O)Cc1cc(NC(=O)c2cc(F)cc(C(F)(F)F)c2)c2c(c1)C(=O)N[C@H]2c1cc(F)ccc1Cl` [Compound I-1489] reads ≤ 100 nM.
Regarding `N#Cc1cccc(S(=O)(=O)Cc2cc(NC(=O)c3cc(F)cc(C(F)(F)F)c3)c3c(c2)C(=O)NC3c2cc(F)ccc2Cl)c1` (centres unmarked) [Compound I-1491], the IC50 was ≤ 100 nM.
Under `O=C(Nc1cc(-c2cnc(OC3CC3)nc2)cc2c1C(c1cc(F)ccc1Cl)NC2=O)c1cc(F)cc(C(F)(F)F)c1` (centres unmarked) [Compound I-1492] stands ≤ 100 nM; under `O=C(NCCC(O)CO)c1cc(NC(=O)c2cc(F)cc(C(F)(F)F)c2)c2c(c1)C(=O)NC2c1cc(F)ccc1Cl` (centres unmarked) [Compound I-1493], ≤ 100 nM; under `C/S(Cc1cc(NC(=O)c2cc(F)cc(C(F)(F)F)c2)c2c(c1)C(=O)NC2c1cc(F)ccc1Cl)=N\C#N` (centres unmarked) [Compound I-1494], ≤ 100 nM.
Under `O=C(Nc1cc(CS(=O)(=O)c2ccncc2)cc2c1C(c1cc(F)ccc1Cl)NC2=O)c1cc(F)cc(C(F)(F)F)c1` (centres unmarked) [Compound I-1495] stands ≤ 100 nM; under `O=C(Nc1cc(Cc2ccc3c(c2)CNC3=O)cc2c1C(c1cc(F)ccc1Cl)NC2=O)c1cc(F)cc(C(F)(F)F)c1` (centres unmarked) [Compound I-1496], ≤ 100 nM; under `O=C(Nc1cc(Cn2cccn2)cc2c1C(c1cc(F)ccc1Cl)NC2=O)c1cc(F)cc(C(F)(F)F)c1` (centres unmarked) [Compound I-1497], ≤ 100 nM.
The result for `CS(=O)(=O)n1cc(-c2cc(NC(=O)c3cc(F)cc(C(F)(F)F)c3)c3c(c2)C(=O)NC3c2cc(F)ccc2Cl)cn1` (centres unmarked) [Compound I-1498] reads ≤ 100 nM; that for `O=C(Nc1cc(-c2ccc3ccnn3c2)cc2c1C(c1cc(F)ccc1Cl)NC2=O)c1cc(F)cc(C(F)(F)F)c1` (centres unmarked) [Compound I-1499], ≤ 100 nM.
With `O=C(Nc1cc(-c2ccc3cncn3c2)cc2c1C(c1cc(F)ccc1Cl)NC2=O)c1cc(F)cc(C(F)(F)F)c1` (centres unmarked) [Compound I-1500], the IC50 is ≤ 100 nM.
Turning to `O=C(Nc1cc(-c2ccn3cnnc3c2)cc2c1C(c1cc(F)ccc1Cl)NC2=O)c1cc(F)cc(C(F)(F)F)c1` (centres unmarked) [Compound I-1501], the IC50 was ≤ 100 nM.
The result for `N#C/N=C(\Nc1ccc(F)cc1C(F)(F)F)Nc1cc(Br)cc2c1C(c1cc(F)ccc1Cl)NC2=O` (centres unmarked) [Compound I-1502] reads 1000 to 10000 nM; that for `O=C(Nc1cc(-c2ccn3cncc3c2)cc2c1C(c1cc(F)ccc1Cl)NC2=O)c1cc(F)cc(C(F)(F)F)c1` (centres unmarked) [Compound I-1503], ≤ 100 nM; that for `O=C(Nc1cc(-c2cnn3ccnc3c2)cc2c1C(c1cc(F)ccc1Cl)NC2=O)c1cc(F)cc(C(F)(F)F)c1` (centres unmarked) [Compound I-1504], ≤ 100 nM.
Under `CNC(=O)n1cc(-c2cc(NC(=O)c3cc(F)cc(C(F)(F)F)c3)c3c(c2)C(=O)NC3c2cc(F)ccc2Cl)cn1` (centres unmarked) [Compound I-1505] stands ≤ 100 nM; under `CNC(=O)c1ncc(-c2cc(NC(=O)c3cc(F)cc(C(F)(F)F)c3)c3c(c2)C(=O)NC3c2cc(F)ccc2Cl)cn1` (centres unmarked) [Compound I-1506], 100 to 500 nM; under `CC(C)(CNC(=O)Nc1cc(Br)cc2c1C(c1cc(F)ccc1Cl)NC2=O)C1(O)CCC1` (centres unmarked) [Compound I-1507], 10000 to 100000 nM.
The result for `O=C1NC(c2cc(F)ccc2Cl)c2c(NC(=O)N3CC4(CC4)c4cc(F)ccc43)cc(Br)cc21` (centres unmarked) [Compound I-1512] reads 100 to 500 nM.
In turn, `O=C1NC(c2cc(F)ccc2Cl)c2c1cccc2-n1cnc2ccccc2c1=O` (centres unmarked) [Compound I-1516] registered an IC50 of 10000 to 100000 nM.
Under `O=C(Nc1cc(Cc2ccc3nncn3c2)cc2c1C(c1cc(F)ccc1Cl)NC2=O)c1cc(F)cc(C(F)(F)F)c1` (centres unmarked) [Compound I-1528] stands ≤ 100 nM; under `CC(C)(O)COc1ncc(-c2cc(NC(=O)c3cc(F)cc(C(F)(F)F)c3)c3c(c2)C(=O)NC3c2cc(F)ccc2Cl)cn1` (centres unmarked) [Compound I-1529], ≤ 100 nM; under `N#CCOc1ncc(-c2cc(NC(=O)c3cc(F)cc(C(F)(F)F)c3)c3c(c2)C(=O)NC3c2cc(F)ccc2Cl)cn1` (centres unmarked) [Compound I-1530], ≤ 100 nM.
The result for `Nc1nc2cc(-c3cc(NC(=O)c4cc(F)cc(C(F)(F)F)c4)c4c(c3)C(=O)NC4c3cc(F)ccc3Cl)ccc2o1` (centres unmarked) [Compound I-1531] reads ≤ 100 nM; that for `CN(C)C(=O)OCc1cc(NC(=O)c2cc(F)cc(C(F)(F)F)c2)c2c(c1)C(=O)NC2c1cc(F)ccc1Cl` (centres unmarked) [Compound I-1532], ≤ 100 nM.
The result for `CNS(=O)(=O)Cc1cc(NC(=O)c2cc(F)cc(C(F)(F)F)c2)c2c(c1)C(=O)N[C@@H]2c1cc(F)ccc1Cl` [Compound I-1533] reads 100 to 500 nM.
Regarding `CNS(=O)(=O)Cc1cc(NC(=O)c2cc(F)cc(C(F)(F)F)c2)c2c(c1)C(=O)N[C@H]2c1cc(F)ccc1Cl` [Compound I-1534], the IC50 is ≤ 100 nM.
The result for `Cn1cc(NS(=O)(=O)Cc2cc(NC(=O)c3cc(F)cc(C(F)(F)F)c3)c3c(c2)C(=O)NC3c2cc(F)ccc2Cl)cn1` (centres unmarked) [Compound I-1535] reads ≤ 100 nM; that for `O=C(Nc1cc(CS(=O)(=O)c2cccnc2)cc2c1C(c1cc(F)ccc1Cl)NC2=O)c1cc(F)cc(C(F)(F)F)c1` (centres unmarked) [Compound I-1536], ≤ 100 nM; that for `N#Cc1ccncc1-c1cc(NC(=O)c2cc(F)cc(C(F)(F)F)c2)c2c(c1)C(=O)NC2c1cc(F)ccc1Cl` (centres unmarked) [Compound I-1537], ≤ 100 nM.
Under `N#Cc1cc2ncnn2cc1-c1cc(NC(=O)c2cc(F)cc(C(F)(F)F)c2)c2c(c1)C(=O)NC2c1cc(F)ccc1Cl` (centres unmarked) [Compound I-1539] stands ≤ 100 nM; under `CC(C)(O)c1cnc2ccc(-c3cc(NC(=O)c4cc(F)cc(C(F)(F)F)c4)c4c(c3)C(=O)NC4c3cc(F)ccc3Cl)cc2c1` (centres unmarked) [Compound I-1540], ≤ 100 nM.
On to `O=C(Nc1cc(-c2cnc(C(O)CO)nc2)cc2c1C(c1cc(F)ccc1Cl)NC2=O)c1cc(F)cc(C(F)(F)F)c1` (centres unmarked) [Compound I-1542], for which the IC50 was ≤ 100 nM.
The result for `CS(=O)(=O)Oc1cc(NC(=O)c2cc(F)cc(C(F)(F)F)c2)c2c(c1)C(=O)NC2c1cc(F)ccc1Cl` (centres unmarked) [Compound I-1543] reads ≤ 100 nM.
Consider `O=C(Nc1cc(-c2cnc3ocnc3c2)cc2c1C(c1cc(F)ccc1Cl)NC2=O)c1cc(F)cc(C(F)(F)F)c1` (centres unmarked) [Compound I-1544], for which the IC50 was ≤ 100 nM.
The result for `O=C1CCc2cc(F)cc(C(=O)Nc3cccc4c3C(c3cc(F)ccc3Cl)NC4=O)c2N1` (centres unmarked) [Compound I-1545] reads 10000 to 100000 nM; that for `O=C1CCc2cc(F)cc(C(=O)Nc3cc(Br)cc4c3C(c3cc(F)ccc3Cl)NC4=O)c2N1` (centres unmarked) [Compound I-1546], 10000 to 100000 nM.
Take `O=C(Nc1cc(-c2ccc3ncnn3c2)cc2c1C(c1cc(F)ccc1Cl)NC2=O)c1cc(F)cc2c1NC(=O)C2(F)F` (centres unmarked) [Compound I-1547]: the IC50 was ≤ 100 nM.
As for `CNC(=O)c1cc(NC(=O)c2ccccc2)c2c(c1)C(=O)NC2c1cc(F)ccc1Cl` (centres unmarked) [Compound I-1548], the IC50 lay within 10000 to 100000 nM.
Under `O=C1NC(c2cc(F)ccc2Cl)c2c(NC(=O)C3CCCCC3)cc(-c3ccc4ncnn4c3)cc21` (centres unmarked) [Compound I-1549] stands 1000 to 10000 nM; under `O=C(Nc1cc(-c2ccc3ncnn3c2)cc2c1C(c1cc(F)ccc1Cl)NC2=O)c1ccccc1` (centres unmarked) [Compound I-1550], 1000 to 10000 nM; under `[2H]C([2H])(c1cc(NC(=O)c2cc(F)cc(C(F)(F)F)c2)c2c(c1)C(=O)NC2c1cc(F)ccc1Cl)S(C)(=O)=O` (centres unmarked) [Compound I-1551], ≤ 100 nM.
As to `O=CNc1nc(-c2cc(NC(=O)c3cc(F)cc(C(F)(F)F)c3)c3c(c2)C(=O)NC3c2cc(F)ccc2Cl)ccc1O` (centres unmarked) [Compound I-1552], the IC50 is ≤ 100 nM.
`O=C(Nc1cc(-c2ccc3ocnc3n2)cc2c1C(c1cc(F)ccc1Cl)NC2=O)c1cc(F)cc(C(F)(F)F)c1` (centres unmarked) [Compound I-1553]: the IC50 was ≤ 100 nM.
Under `N#CC1CN(S(=O)(=O)Cc2cc(NC(=O)c3cc(F)cc(C(F)(F)F)c3)c3c(c2)C(=O)NC3c2cc(F)ccc2Cl)C1` (centres unmarked) [Compound I-1556] stands ≤ 100 nM.
Turning to `N#Cc1nccn1Cc1cc(NC(=O)c2cc(F)cc(C(F)(F)F)c2)c2c(c1)C(=O)NC2c1cc(F)ccc1Cl` (centres unmarked) [Compound I-1557], the IC50 is ≤ 100 nM.
The result for `O=C(Nc1cc(CS(=O)(=O)c2ncccn2)cc2c1C(c1cc(F)ccc1Cl)NC2=O)c1cc(F)cc(C(F)(F)F)c1` (centres unmarked) [Compound I-1570] reads ≤ 100 nM.
Under `O=C(Nc1cc(-c2cnn(-c3cscn3)c2)cc2c1C(c1cc(F)ccc1Cl)NC2=O)c1cc(F)cc(C(F)(F)F)c1` (centres unmarked) [Compound I-1571] stands ≤ 100 nM; under `O=C(Nc1cc(-c2cnn(-c3nccs3)c2)cc2c1C(c1cc(F)ccc1Cl)NC2=O)c1cc(F)cc(C(F)(F)F)c1` (centres unmarked) [Compound I-1572], ≤ 100 nM.
Under `O=C(Nc1cc(-c2ccc3nc(Cl)nn3c2)cc2c1C(c1cc(F)ccc1Cl)NC2=O)c1cc(F)cc(C(F)(F)F)c1` (centres unmarked) [Compound I-1573] stands ≤ 100 nM.
On to `O=C(Nc1cc(-c2ccc3nnc(Cl)n3c2)cc2c1C(c1cc(F)ccc1Cl)NC2=O)c1cc(F)cc(C(F)(F)F)c1` (centres unmarked) [Compound I-1574], for which the IC50 is ≤ 100 nM.
The result for `O=C(Nc1cc(-c2ccc3nc(Cl)nn3c2)cc2c1C(c1cc(F)ccc1Cl)NC2=O)c1cc(F)cc(C(F)(F)F)c1` (centres unmarked) [Compound I-1575] reads ≤ 100 nM; that for `O=C1NC(c2cc(F)ccc2Cl)c2c1cccc2-n1cc2ccccc2cc1=O` (centres unmarked) [Compound I-1580], 10000 to 100000 nM; that for `CC(=O)Nc1cccc2c1C(c1cc(F)ccc1Cl)NC2=O` (centres unmarked) [Compound I-1581], 10000 to 100000 nM.
`O=C(Nc1cc(Br)cc2c1C(c1cc(F)ccc1Cl)NC2=O)c1cc(F)cc(CC(F)(F)F)c1` (centres unmarked) [Compound I-1582]: the IC50 was in the range of 500 to 1000 nM.
The result for `O=C(Nc1cc(-c2ccc3ncnn3c2)cc2c1[C@@H](c1cc(F)ccc1Cl)NC2=O)c1cc(F)cc2c1NC(=O)C2(F)F` [Compound I-1583] reads 1000 to 10000 nM.

Values taken from patent US12581252B2, “Substituted pyrrolo[3,4-b]pyridines as PI3K-α inhibitors” (Relay Therapeutics, Inc., priority 2020, dated 2026).
